Assay results reported in patent US11759455B2, “Substituted 1H-imidazo[4,5-b]pyridin-2(3H)-ones and their use as GLUN2B receptor modulators” (JANSSEN PHARMACEUTICA NV, priority 2016, dated 2023).
Where two headings read alike, the source gives them in different places.

Target: T1, human GluN1/GluN2B NMDA receptors (Homo sapiens, UniProt Q05586+Q13224)
T1 construct: expressed in transfected cells
Assay: Cell-based calcium flux (FLIPR) assay on cloned human NR1/NR2B ion channels expressed in mammalian cells (standard and HTS buffer variants);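 note: stable Tet-On inducible cell line, Ca2+ influx triggered by glutamate at about EC40 plus 10 µM glycine, fluorescent dye read-out over 5 min, normalized to control wells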

[1] = standard assay buffer (0.5 mM MgCl2 dye loading; 137 mM NaCl, 4 mM KCl assay buffer), human GluN1/GluN2B cells, read-out: NR2B IC50 (μM) standard assay
[2] = standard assay buffer (0.5 mM MgCl2 in dye loading buffer; 137 mM NaCl, 4 mM KCl in assay buffer), human GluN1/GluN2B, read-out: NR2B IC50 (μM) standard assay
[3] = HTS assay buffer (1.5 mM MgCl2 dye loading; 150 mM NaCl, 3 mM KCl assay buffer), human GluN1/GluN2B cells, read-out: NR2B IC50 (μM) HTS assay

T1 sequence (Q13224 27-1484, other chains not shown): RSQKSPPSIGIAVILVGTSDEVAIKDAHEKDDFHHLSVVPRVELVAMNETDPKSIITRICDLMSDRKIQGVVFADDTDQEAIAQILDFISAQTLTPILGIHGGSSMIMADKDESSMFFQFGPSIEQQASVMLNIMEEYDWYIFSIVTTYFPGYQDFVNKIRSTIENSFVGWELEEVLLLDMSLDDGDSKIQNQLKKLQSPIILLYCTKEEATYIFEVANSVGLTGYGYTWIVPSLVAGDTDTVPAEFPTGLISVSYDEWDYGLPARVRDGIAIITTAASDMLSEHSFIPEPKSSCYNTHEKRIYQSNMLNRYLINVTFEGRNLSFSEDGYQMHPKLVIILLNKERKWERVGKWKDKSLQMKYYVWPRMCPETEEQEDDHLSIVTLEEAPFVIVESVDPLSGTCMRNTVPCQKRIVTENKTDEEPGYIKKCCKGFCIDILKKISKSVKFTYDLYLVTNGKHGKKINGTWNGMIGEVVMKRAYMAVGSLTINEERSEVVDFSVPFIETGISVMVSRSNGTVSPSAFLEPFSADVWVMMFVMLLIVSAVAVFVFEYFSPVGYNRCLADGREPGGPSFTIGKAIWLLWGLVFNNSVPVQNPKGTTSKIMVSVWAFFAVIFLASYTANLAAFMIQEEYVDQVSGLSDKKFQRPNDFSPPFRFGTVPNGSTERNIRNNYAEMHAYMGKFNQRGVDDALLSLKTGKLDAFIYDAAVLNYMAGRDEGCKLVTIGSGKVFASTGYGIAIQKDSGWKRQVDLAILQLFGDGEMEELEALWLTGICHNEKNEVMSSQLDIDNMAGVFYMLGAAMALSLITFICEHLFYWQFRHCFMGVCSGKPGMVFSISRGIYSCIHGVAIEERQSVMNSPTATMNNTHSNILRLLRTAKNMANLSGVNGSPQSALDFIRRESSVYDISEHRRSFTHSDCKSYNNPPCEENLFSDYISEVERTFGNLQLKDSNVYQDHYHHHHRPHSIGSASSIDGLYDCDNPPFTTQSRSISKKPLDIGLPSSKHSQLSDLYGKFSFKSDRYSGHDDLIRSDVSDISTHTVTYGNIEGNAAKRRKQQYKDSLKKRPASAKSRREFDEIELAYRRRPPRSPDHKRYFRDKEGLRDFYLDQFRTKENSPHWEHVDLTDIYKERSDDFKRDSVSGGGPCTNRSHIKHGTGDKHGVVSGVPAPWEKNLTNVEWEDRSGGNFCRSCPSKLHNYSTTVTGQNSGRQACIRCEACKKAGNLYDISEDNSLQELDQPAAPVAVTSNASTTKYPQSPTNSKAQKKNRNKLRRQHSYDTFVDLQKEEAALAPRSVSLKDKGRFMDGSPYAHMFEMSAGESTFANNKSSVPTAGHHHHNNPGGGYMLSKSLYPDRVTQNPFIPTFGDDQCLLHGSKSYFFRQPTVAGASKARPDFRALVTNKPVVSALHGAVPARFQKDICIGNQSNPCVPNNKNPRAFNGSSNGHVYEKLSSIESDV

| SMILES | IC50 [1] | IC50 [2] | other results |
| --- | --- | --- | --- |
| O=c1[nH]c2ncc(-c3ccccc3)cc2n1CC1CCN1 (racemic) [Example 265, (R/S)-1-(Azetidin-2-ylmethyl)-6-phenyl-3H-imidazo[4,5-b]pyridin-2-one] | 0.397 µM | – | – |
| O=c1[nH]c2ncc(-c3ccc(F)cc3)cc2n1CC1CCN1 (racemic) [Example 266, (R/S)-1-(Azetidin-2-ylmethyl)-6-(4-fluorophenyl)-3H-imidazo[4,5-b]pyridin-2-one] | 0.173 µM | – | – |
| O=c1[nH]c2ncc(-c3ccc(F)c(C(F)(F)F)c3)cc2n1CC1CCN1 (racemic) [Example 267, (R/S)-1-(Azetidin-2-ylmethyl)-6-[4-fluoro-3-(trifluoromethyl)phenyl]-3H-imidazo[4,5-b]pyridin-2-one] | 0.442 µM | – | – |
| O=c1[nH]c2ncc(-c3cccc(Cl)c3Cl)cc2n1CC1CCN1 (racemic) [Example 268, (R/S)-1-(Azetidin-2-ylmethyl)-6-(2,3-dichlorophenyl)-3H-imidazo[4,5-b]pyridin-2-one] | 0.041 µM | – | – |
| CCC(O)Cn1c(=O)n(C)c2ncc(-c3ccc(F)c(F)c3)cc21 (racemic) [Example 333, (R/S)-6-(3,4-Difluorophenyl)-1-(2-hydroxybutyl)-3-methyl-imidazo[4,5-b]pyridin-2-one] | – | 1.9 µM | – |
| CCC(O)Cn1c(=O)[nH]c2ncc(-c3ccc(F)c(C)c3)cc21 (racemic) [Example 334, (R/S)-6-(4-Fluoro-3-methyl-phenyl)-1-(2-hydroxybutyl)-3H-imidazo[4,5-b]pyridin-2-one] | – | 0.031 µM | – |
| CCC(O)Cn1c(=O)[nH]c2ncc(-c3ccc(F)c(C)c3F)cc21 (racemic) [Example 336, (R/S)-6-(2,4-Difluoro-3-methyl-phenyl)-1-(2-hydroxybutyl)-3H-imidazo[4,5-b]pyridin-2-one] | – | 0.015 µM | – |
| CCC(O)Cn1c(=O)[nH]c2ncc(-c3cccc(C(F)(F)F)c3)cc21 (racemic) [Example 337, (R/S)-1-(2-Hydroxybutyl)-6-[3-(trifluoromethyl)phenyl]-3H-imidazo[4,5-b]pyridin-2-one] | – | 0.119 µM | – |
| COCCC(O)Cn1c(=O)n(C)c2ncc(-c3ccc(F)c(C)c3)cc21 (racemic) [Example 393, (R/S)-6-(4-Fluoro-3-methyl-phenyl)-1-(2-hydroxy-4-methoxy-butyl)-3-methyl-imidazo[4,5-b]pyridin-2-one] | – | 0.486 µM | – |
| Cn1c(=O)n(CC2CCO2)c2cc(-c3cccc(C(F)F)c3)cnc21 (racemic) [Example 394, (R/S)-6-[3-(Difluoromethyl)phenyl]-3-methyl-1-(oxetan-2-ylmethyl)imidazo [4,5-b]pyridin-2-one] | – | 0.128 µM | – |
| Cc1cc(-c2cnc3c(c2)n(CC2CCO2)c(=O)n3C)ccc1F (racemic) [Example 395, (R/S)-6-(4-Fluoro-3-methyl-phenyl)-3-methyl-1-(oxetan-2-ylmethyl)imidazo[4,5-b]pyridin-2-one] | – | 1.2 µM | – |
| Cc1c(-c2cnc3c(c2)n(CC2CCO2)c(=O)n3C)cccc1C(F)(F)F (racemic) [Example 398, (R/S)-3-Methyl-6-[2-methyl-3-(trifluoromethyl)phenyl]-1-(oxetan-2-ylmethyl)imidazo[4,5-b]pyridin-2-one] | – | 2.84 µM | – |
| Cc1c(-c2cnc3c(c2)n(CC(O)CCO)c(=O)n3C)cccc1C(F)(F)F (racemic) [Example 399, (R/S)-1-(2,4-Dihydroxybutyl)-3-methyl-6-[2-methyl-3-(trifluoromethyl)phenyl]imidazo[4,5-b]pyridin-2-one] | – | 5.1 µM | – |
| CCC(O)Cn1c(=O)[nH]c2ncc(-c3ccc(OC)cc3)cc21 (single isomer, unassigned) [Example 4, (S*)-1-(2-Hydroxybutyl)-6-(4-methoxyphenyl)-3H-imidazo[4,5-b]pyridin-2-one] | 0.32 µM | – | – |
| CCC(O)Cn1c(=O)[nH]c2ncc(-c3ccc(F)cc3C)cc21 (single isomer, unassigned) [Example 43, (R*)-6-(4-Fluoro-2-methyl-phenyl)-1-(2-hydroxybutyl)-3H-imidazo[4,5-b]pyridin-2-one] | – | – | IC50 [3]: 3.49 µM |
| CCC(O)Cn1c(=O)[nH]c2ncc(-c3ccc(F)cc3C)cc21 (single isomer, unassigned) [Example 44, (S*)-6-(4-Fluoro-2-methyl-phenyl)-1-(2-hydroxybutyl)-3H-imidazo[4,5-b]pyridin-2-one] | – | – | IC50 [3]: 0.325 µM |
| [2H]c1c(-c2ccc(C(F)(F)F)s2)cnc2c1n(CC(=O)N1CCC1)c(=O)n2C [Example 120, 1-(2-(Azetidin-1-yl)-2-oxoethyl)-3-methyl-6-(5-(trifluoromethyl)thiophen-2-yl)-1,3-dihydro-2H-imidazo[4,5-b]pyridin-2-one-7-D] | 0.01 µM | – | – |
| [2H]C([2H])([2H])OCc1ccc(-c2cnc3c(c2)n(CC(=O)N(C)C)c(=O)n3C)s1 [Example 121, N,N-Dimethyl-2-[3-methyl-2-oxo-6-[5-(trideuteriomethoxymethyl)-2-thienyl]imidazo[4,5-b]pyridin-1-yl]acetamide] | 2.96 µM | – | – |
| [2H]C([2H])([2H])OCc1ccc(-c2cnc3c(c2)n(CC(=O)N2CCC2)c(=O)n3C)s1 [Example 122, 1-[2-(Azetidin-1-yl)-2-oxo-ethyl]-3-methyl-6-[5-(trideuteriomethoxymethyl)-2-thienyl]imidazo[4,5-b]pyridin-2-one] | 1.22 µM | – | – |
| Cc1cc(-c2cnc3c(c2)n(CC(=O)N2CCC2)c(=O)n3C)ccc1F [Example 410, 1-[2-(Azetidin-1-yl)-2-oxo-ethyl]-6-(4-fluoro-3-methyl-phenyl)-3-methyl-imidazo[4,5-b]pyridin-2-one] | – | 0.013 µM | – |

More lines, main results first:

| IC50 [1] | IC50 [2] | SMILES | other results |
| --- | --- | --- | --- |
| 0.044 µM | – | O=c1[nH]c2ncc(-c3cccc(C(F)(F)F)c3F)cc2n1CC1CCN1 (racemic) [Example 264, (R/S)-1-(Azetidin-2-ylmethyl)-6-[2-fluoro-3-(trifluoromethyl)phenyl]-3H-imidazo[4,5-b]pyridin-2-one] | – |
| 0.046 µM | – | O=c1[nH]c2ncc(-c3ccc(F)c(C(F)(F)F)c3)cc2n1CC1CCO1 (racemic) [Example 271, (R/S)-6-[4-Fluoro-3-(trifluoromethyl)phenyl]-1-(oxetan-2-ylmethyl)-3H-imidazo[4,5-b]pyridin-2-one] | – |
| – | 0.054 µM | CCC(O)Cn1c(=O)[nH]c2ncc(-c3cccc(C)c3)cc21 (racemic) [Example 335, (R/S)-1-(2-Hydroxybutyl)-6-(m-tolyl)-3H-imidazo[4,5-b]pyridin-2-one] | – |
| – | 0.687 µM | CC(C)C(O)Cn1c(=O)[nH]c2ncc(-c3cccc(C(F)(F)F)c3)cc21 (racemic) [Example 338, (R/S)-1-(2-Hydroxy-3-methyl-butyl)-6-[3-(trifluoromethyl)phenyl]-3H-imidazo[4,5-b]pyridin-2-one] | – |
| – | 0.135 µM | Cn1c(=O)n(CC2CCO2)c2cc(-c3cccc(C(F)(F)F)c3F)cnc21 (racemic) [Example 396, (R/S)-6-[2-Fluoro-3-(trifluoromethyl)phenyl]-3-methyl-1-(oxetan-2-ylmethyl)imidazo[4,5-b]pyridin-2-one] | – |
| – | 0.228 µM | Cn1c(=O)n(CC2CCO2)c2cc(-c3cccc(Cl)c3)cnc21 (racemic) [Example 397, (R/S)-6-(3-Chlorophenyl)-3-methyl-1-(oxetan-2-ylmethyl)imidazo[4,5-b]pyridin-2-one] | – |
| 0.036 µM | – | O=c1[nH]c2ncc(-c3cccc(C(F)(F)F)c3)cc2n1CC1CCO1 (single isomer, unassigned) [Example 223, (R*)-1-(Oxetan-2-ylmethyl)-6-[3-(trifluoromethyl)phenyl]-3H-imidazo[4,5-b]pyridin-2-one] | – |
| 0.054 µM | – | O=c1[nH]c2ncc(-c3cccc(C(F)(F)F)c3)cc2n1CC1CCO1 (single isomer, unassigned) [Example 224, (S*)-1-(Oxetan-2-ylmethyl)-6-[3-(trifluoromethyl)phenyl]-3H-imidazo[4,5-b]pyridin-2-one] | – |
| 0.018 µM | – | Cn1c(=O)n(CC(=O)N2CC(F)C2)c2cc(-c3csc(C(F)(F)F)c3)cnc21 [Example 102, 1-[2-(3-Fluoroazetidin-1-yl)-2-oxo-ethyl]-3-methyl-6-[5-(trifluoromethyl)-3-thienyl]imidazo[4,5-b]pyridin-2-one] | – |
| 1.82 µM | – | [2H]C([2H])([2H])OCc1ccc(-c2cnc3c(c2)n(CC(=O)N2CC(F)C2)c(=O)n3C)s1 [Example 123, 1-[2-(3-Fluoroazetidin-1-yl)-2-oxo-ethyl]-3-methyl-6-[5-(trideuteriomethoxymethyl)-2-thienyl]imidazo[4,5-b]pyridin-2-one] | – |
| – | 1.63 µM | COc1ccc(-c2cnc3[nH]c(=O)n(CC(=O)C(C)(C)C)c3c2)cc1 [Example 601, 1-(3,3-Dimethyl-2-oxo-butyl)-6-(4-methoxyphenyl)-3H-imidazo[4,5-b]pyridin-2-one] | – |
| – | 1.29 µM | COc1ccc(-c2cnc3[nH]c(=O)n(CC(=O)C(C)(C)C)c3c2)cc1C [Example 603, 1-(3,3-Dimethyl-2-oxo-butyl)-6-(4-methoxy-3-methyl-phenyl)-3H-imidazo[4,5-b]pyridin-2-one] | – |
| – | 1.82 µM | COc1ccc(-c2cnc3[nH]c(=O)n(CC(C)C)c3c2)cc1 [Example 604, 1-Isobutyl-6-(4-methoxyphenyl)-3H-imidazo[4,5-b]pyridin-2-one] | – |
| – | 1.02 µM | COc1ccc(-c2cnc3[nH]c(=O)n(Cc4ccccc4C#N)c3c2)cc1C [Example 608, 2-[[6-(4-Methoxy-3-methyl-phenyl)-2-oxo-3H-imidazo[4,5-b]pyridin-1-yl]methyl]benzonitrile] | – |
| – | 0.263 µM | COc1ccc(-c2cnc3[nH]c(=O)n(CC(=O)C(C)(C)C)c3c2)cc1F [Example 609, 1-(3,3-Dimethyl-2-oxo-butyl)-6-(3-fluoro-4-methoxy-phenyl)-3H-imidazo[4,5-b]pyridin-2-one] | – |
